± gives the expanded uncertainty stated by the source.
Legend:
[1] = 101 kPa, Liquid, Sing-around technique in a fixed-path interferometer
[2] = mn = molality of the nth substance listed, in mol/kg; settings: 101 kPa, Liquid; for speed of sound: Sing-around technique in a fixed-path interferometer; for mass density: Vibrating tube method

O [water]
[1]
Settings | speed of sound [m/s]
288.15 K | 1463.1 ± 2.2
298.15 K | 1495.8 ± 2.2
308.15 K | 1519.1 ± 2.2

O=C([O-])CC(O)(CC(=O)[O-])C(=O)[O-].[Na+].[Na+].[Na+] [trisodium citrate] + O
[2]
Settings | mass density, 288.15 K [kg/m3] | mass density, 298.15 K [kg/m3] | mass density, 308.15 K [kg/m3] | mass density, 318.15 K [kg/m3] | speed of sound, 288.15 K [m/s] | speed of sound, 298.15 K [m/s] | speed of sound, 308.15 K [m/s] | speed of sound, 318.15 K [m/s]
m1 = 0.2 | 1034.67 ± 0.18 | 1031.98 ± 0.17 | 1028.5 ± 0.17 | 1024.36 ± 0.17 | 1508 ± 2.2 | 1536 ± 2.2 | 1556.9 ± 2.2 | 1571.8 ± 2.2
m1 = 0.4 | 1071.21 ± 0.19 | 1067.93 ± 0.19 | 1064.13 ± 0.19 | 1059.23 ± 0.19 | 1552.2 ± 2.3 | 1577.5 ± 2.2 | 1595.8 ± 2.2 | 1608.3 ± 2.2
m1 = 0.6 | 1104.43 ± 0.21 | 1100.68 ± 0.21 | 1096.96 ± 0.21 | 1092.26 ± 0.2 | 1591.5 ± 2.2 | 1614 ± 2.2 | 1630.3 ± 2.2 | 1641.2 ± 2.2
m1 = 0.8 | 1137.97 ± 0.23 | 1133.93 ± 0.23 | 1129.43 ± 0.22 | 1124.5 ± 0.22 | 1634 ± 2.3 | 1653.8 ± 2.3 | 1667.3 ± 2.2 | 1676.2 ± 2.2

From the NIST ThermoML archive (doi:10.1016/j.jct.2013.08.010)
